Experimental data as given in patent US8754079B2, “Cycloalkyl containing thienopyrimidines for pharmaceutical compositions” (Boehringer Ingelheim International GmbH, priority 2010, dated 2014).
“And” between values parts separate entries of the source, which are not always exact repeats. Equal entries are not always repeated.

Biological target: T1, MNK2 (Homo sapiens, UniProt Q9HBH9)
T1 construct: the open reading frames of human Mnk1 and Mnk2a were amplified from cDNA; made in house; host or cells: E. coli BL21
T1 sequence (Q9HBH9 whole entry): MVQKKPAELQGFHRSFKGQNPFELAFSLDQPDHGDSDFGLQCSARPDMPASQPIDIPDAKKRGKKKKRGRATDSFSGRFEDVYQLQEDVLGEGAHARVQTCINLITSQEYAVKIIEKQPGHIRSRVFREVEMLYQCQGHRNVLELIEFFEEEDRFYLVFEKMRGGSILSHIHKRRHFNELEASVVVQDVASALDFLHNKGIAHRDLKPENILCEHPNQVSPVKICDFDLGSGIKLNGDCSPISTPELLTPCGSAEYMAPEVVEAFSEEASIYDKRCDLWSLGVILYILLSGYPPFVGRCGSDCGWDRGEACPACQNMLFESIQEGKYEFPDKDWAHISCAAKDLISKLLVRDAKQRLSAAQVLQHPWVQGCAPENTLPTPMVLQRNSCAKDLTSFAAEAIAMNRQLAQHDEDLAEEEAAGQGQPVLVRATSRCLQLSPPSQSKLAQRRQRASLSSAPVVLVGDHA
Assay: Mnk2a in vitro kinase assay (indirect fluorescence polarization)
Format: biochemical
Conditions: pre-activated GST-Mnk2a 2.5 nM, 20 μM ATP, 30 μM substrate peptide
Method: Inhibitory potency of compounds against Mnk1, Mnk2a and other kinases was assessed with assays based on a format known to those skilled in the art as the indirect (competitive) fluorescence polarization. The assay detection system comprises a small fluorophore-labeled phospho-peptide (termed ligand) bound to a phospho-specific antibody. The product generated by the kinase reaction competes with the ligand for antibody binding. Based on the larger molecular volume of the bound ligand, which results in a lower rotation rate in solution, its emitted light has a higher degree of polarization than the one from the free ligand.
Example 2a. Mnk1 and Mnk2a in vitro kinase assay
As a source of enzyme, human Mnk1 and human Mnk2a were expressed as GST fusion proteins in E. coli, purified to >80% homogeneity by glutathione affinity chromatography and activated in vitro with pre-activated ERK2. In brief, the open reading frames of human Mnk1 and Mnk2a were amplified from cDNA using the forward/reverse primer pairs
(utilized restriction sites underlined), respectively, and cloned into the BamHI and SalI sites of the vector pGEX-4T1 (Amersham, Sweden, cat. no. 27-4580-01). These constructs allow prokaryotic expression of Mnk1 or Mnk2a as fusion protein with a N-terminal glutathione S-transferase (GST) tag, referred to as GST-Mnk1 or GSTMnk2a. The following expression and purification procedure was identical for GSTMnk1 and GST-Mnk2a, referring in general to GST-Mnk, when not distinguishing between the two isoforms. Expression of GST-Mnk was in E. coli BL21 (Merck Biosciences, Germany, cat. no. 69449). Cells were grown in LB-Bouillon (Merck, Germany, cat. no. 1.10285) supplemented with 100 μg/ml ampicillin (Sigma, Germany, cat. no. A9518) at 37° C. When the culture had reached a density corresponding to an A600 of 0.8, an equal volume of ice cold LB/ampicillin was added, the culture transferred to 25° C. and induced for 4 h with 1 mM isopropyl thiogalactoside (IPTG, Roth, Germany, cat. no. 2316.4). Cells harvested by centrifugation were resuspended in 10 ml lysis buffer (50 mM tris(hydroxymethyl)aminomethane hydrochloride (Tris/HCl, Sigma, Germany, cat. no. T5941) pH 7.5, 300 mM sodium chloride (NaCl, Sigma, Germany, cat. no. S7653), 5% (w/v) glycerol (Sigma, Germany, cat. no. G5516), 3 mM DTT dithiotreitol (DTT, Sigma, Germany, cat. no. D9779)) per gram wet weight cell pellet. Lysates were prepared by disruption of cells with a sonifier and subsequent clearing by centrifugation at 38000 g for 45 min at 4° C.
The lysate was applied to a GSTPrep FF 16/10 column (Amersham, Sweden, cat. no. 17-5234-01) equilibrated with lysis buffer. Removal of unbound material was with 3 column volumes (CV) lysis buffer. Elution was with 2 CV of elution buffer (50 mM Tris/HCl pH 7.5, 300 mM NaCl, 5% (w/v) glycerol, 20 mM glutathione (Sigma, Germany, cat. no. G4251)). Peak fractions were pooled and the protein transferred into storage buffer (50 mM Tris/HCl pH 7.5, 200 mM NaCl, 0.1 mM ethylene glycolbis(2-aminoethylether)-N,N,N′,N′-tetraacetic acid (EGTA, Aldrich, Germany, cat. no. 23, 453-2), 1 mM DTT, 10% (w/v) glycerol, 0.5 M sucrose (Sigma, Germany, cat. no. S0389) by gel filtration on a PD10 desalting column (Amersham, Sweden, cat. no. 17-0851-01). Aliquots were shock frozen in liquid nitrogen and stored at −80° C.
Activation of Mnk1 and Mnk2a was at a concentration of 2.5 μM of either purified GST-Mnk1 or GST-Mnk2a by incubation with 150 nM pre-activated NHis-ERK2 (see ERK2 assay for preparation) and 50 μM adenosine triphosphate (ATP, Sigma, cat. no. A2699) in a buffer comprising 20 mM N-(2-hydroxyethyl)piperazine-N′-(2-ethanesulfonic acid) (HEPES, Fluka, Germany, cat. no 54459)/potassium hydroxide (KOH, Roth, Germany, cat. no 6751.1) pH 7.4, 10 mM magnesium chloride (MgCl2, Sigma, Germany, cat. no. M2670), 0.25 mM DTT, 0.05% (w/v) polyoxyethylene 20 stearylether (Brij 78, Sigma, Germany, cat. no. P4019) (HMDB buffer) for 45 min at 30° C. […]

Molecule	IC50
4-(4-fluoro-2-(cis-3-hydroxycyclopentyloxy)phenylamino)-5-methylthieno[2,3-d]pyrimidine-6-carboxamide and 4-(4-fluoro-2-(trans-3-hydroxycyclopentyloxy)phenylamino)-5-methylthieno[2,3-d]pyrimidine-6-carboxamide [Example 242]	5 nM and 4 nM
Cc1c(C(=O)NC2CC2N)sc2ncnc(Nc3ccc(F)cc3OC3CCCC(O)C3)c12 (mixture of isomers) [Example 59]	34 nM
Cc1c(C(=O)NCC2CNCCO2)sc2ncnc(Nc3ccc(F)cc3OC3CCCC(O)C3)c12 (mixture of isomers) [Example 67]	18 nM
Cc1c(C(=O)NCC2COCCN2)sc2ncnc(Nc3ccc(F)cc3OC3CCCC(O)C3)c12 (mixture of isomers) [Example 68]	31 nM
Cc1c(C(=O)NCC(C)O)sc2ncnc(Nc3ccc(F)cc3OC3CCCC(O)C3)c12 (mixture of isomers) [Example 73]	43 nM
COC1CCCC(Oc2cc(F)ccc2Nc2ncnc3sc(C(=O)NCC4CNCCO4)c(C)c23)C1 (mixture of isomers) [Example 83]	53 nM
COC1CCCC(Oc2cc(F)ccc2Nc2ncnc3sc(C(=O)NCC4CNCCO4)c(C)c23)C1 (mixture of isomers) [Example 98]	17 nM
Cc1c(C(N)=O)sc2ncnc(Nc3ccc(F)cc3O[C@@H]3CCCC[C@H]3N(C)S(C)(=O)=O)c12 (racemic) [Example 13, Racemic 4-(4-Fluoro-2-(trans-2-(N-methylmethylsulfonamido)cyclohexyloxy)phenylamino)-5-methylthieno[2,3-d]pyrimidine-6-carboxamide]	440 nM
CC(=O)N(C)[C@@H]1CCCC[C@H]1Oc1cc(F)ccc1Nc1ncnc2sc(C(N)=O)c(C)c12 (racemic) [Example 14, Racemic 4-(4-fluoro-2-(trans-2-(N-methylacetamido)cyclohexyloxy)phenylamino)-5-methylthieno[2,3-d]pyrimidine-6-carboxamide]	1600 nM
CO[C@@H]1CCCC[C@H]1Oc1cc(F)ccc1Nc1ncnc2sc(C(N)=O)c(C)c12 (racemic) [Example 50, Racemic 4-[4-Fluoro-2-(trans-2-methoxy-cyclohexyloxy)-phenylamino]-5-methyl-thieno[2,3-d]pyrimidine-6-carboxylic acid amide]	10 nM
CO[C@H]1CCCC[C@H]1Oc1cc(F)ccc1Nc1ncnc2sc(C(N)=O)c(C)c12 (racemic) [Example 55, Racemic 4-[4-Fluoro-2-(cis-2-methoxy-cyclohexyloxy)-phenylamino]-5-methyl-thieno[2,3-d]pyrimidine-6-carboxylic acid amide]	59 nM
Cc1c(C(N)=O)sc2ncnc(Nc3ccc(F)cc3O[C@@H]3CCCC[C@@H]3O)c12 (racemic) [Example 56, Racemic 4-[4-Fluoro-2-((cis)-2-hydroxy-cyclohexyloxy)-phenylamino]-5-methyl-thieno[2,3-d]pyrimidine-6-carboxylic acid amide]	33 nM

Other lines, results leading:

IC50	Molecule
36 nM	COC1CCCC(Oc2ncccc2Nc2ncnc3sc(C(=O)NC4CC4N)c(C)c23)C1 (mixture of isomers) [Example 111]
11 nM	COC1CCCC(Oc2ncccc2Nc2ncnc3sc(C(=O)NCC4CNCCO4)c(C)c23)C1 (mixture of isomers) [Example 119]
96 nM	COC1CCCC(Oc2ncccc2Nc2ncnc3sc(C(=O)NC4CC4N)c(C)c23)C1 (mixture of isomers) [Example 132]
89 nM	COC1CCCC(Oc2ncccc2Nc2ncnc3sc(C(=O)NCC4COCCN4)c(C)c23)C1 (mixture of isomers) [Example 141]
105 nM	COC1CCCC(Oc2ncccc2Nc2ncnc3sc(C(=O)NCC(C)O)c(C)c23)C1 (mixture of isomers) [Example 146]
